Where two headings read alike, the source gives them in different places. Where a SMILES comes first, the peptide text is derived from it. Bridges are numbered along the chain shown (N, C = ends). [ ]: non-standard residue; d: D form.
How the values were obtained:
[1] = system: MIIA PaCa-2 Human Pancreatic Cancer Cell Line; test: Growth of MIIA PaCa-2 cells in vitro (crystal violet T/C); format: cell-based
Description: (§1) For the evaluation of the activity of the analogs, a colorimetric cytotoxicity assay in microtitration plates was used based on quantification of biomass by staining cells with crystal violet, which correlates very well with determination of cell numbers. (Reile et al.; Anal. Biochem. 187, 262-267, 1990; Bernhardt G. et al, J. Cancer Res. Clin. Oncol. (1992), 118, 35-43; Spruss Th. et al, J. Cancer Res. Clin. Oncol 117, 435-443, 1991; Gillies, R. J., Anal. Biochem. 159, 109-113, 1986; Kueng, W. et al.; Anal. Biochem., 182 16-19, 1989.)
(§2) One to two days after seeding cells in 96-well plates the culture medium is exchanged with fresh medium containing the compounds to be tested and fresh medium only for the control cultures. After varying time of incubation, cells are fixed with glutaric dialdehyde and stored under […] at 4° C. until the end of the experiment. Cells are stained with crystal violet and bound stain is extracted with 70% aqueous EtOH. Optical density is measured with EIA Reader (Bio-Tek Instruments) or Biomek 1000 (Beckman) at 590 nm or 600 nm, respectively. Each data point represents the mean value of eight culture wells. T/C values are calculated as T/C=(T-C0)/(C-C0) where T=optical density of treated cultures, C=optical density of control (untreated) cultures, C0 =optical density of cultures at the start of incubation (t=0).
Cells were incubated in RPMI 1640 media containing 10% fetal bovine serum on 96 well plates. [drawing 8]

[2] = system: growth hormone release from superfused rat pituitary cells; test: Inhibition of hGH-RH(1-29)NH2 induced GH release, rat pituitary superfusion system; format: cell-based
Description: Accordingly, this method was used to compare the cytotoxic somatostatin analogs of the present invention to their parent carrier molecules with respect to their hormonal activities.
In rat pituitary superfusion system, the somatostatin analogs were administered for 3 min at 1 nM dose simultaneously with 1 nM hGH-RH(1-29)NH2. The infusion of the somatostatin analogs was maintained for another 6 min. GH responses to 3 min administration of 1 nM hGH-RH(1-29)NH2 were determined during the perfusion of the somatostatin analogs (0 min) and 30, 60 and 90 min after the administration stopped.

[3] = system: MCF-7 human mammary carcinoma cell line; format: cell-based
Description: (§3) MXT estrogen-independen mouse mammary carcinoma cell line was obtained from Dr. Gunter Berndhart, University of Regensburg, Germany. All the other cell lines used in the determination of the antiproliferative activity of the compounds of this invention were obtained from the American Type Culture Collection (ATCC).
as §1, §2
Cells were incubated in IMEM media containing 5% Hl:DCC-FBS (heat inactivated dextran coated charcoal treated fetal bovine serum) on 96 well plates. Relative cell number in treated and control plates was determined by the crystal violet staining method and was expressed as T/C values where T/C=T-C0 /C-C0×100 [T=absorbance of treated cultures, C= absorbance of control cultures, C0 =absorbance of cultures at the start of incubation (t=0). The measured absorbance is proportionate to the cell number.]

[4] = system: estrogen independent MXT mouse mammary cancers; test: Effect of cytotoxic LH-RH analogs on estrogen independent MXT mouse mammary cancers (KS-47); format: in vivo
Description: MXT (3.2) ovex tumor pieces (1 mm^3) were transplanted in female B6 D2 F1 mice. The treatment started one day after transplantation and was continued for 12 days by i.p. injections once a day. Tumors were measured on days 10, 14 and 18, and tumor volume was calculated.

[5] = system: estrogen independent MXT mouse mammary cancers; test: Earlier experiment with Q2 daily dosing (tumor growth, survival)
[6] = system: MXT estrogen independent mouse mammary carcinoma cell line; test: In vitro cytotoxic activity, crystal violet colorimetric assay on MXT; format: cell-based
Description: as §3, §1, §2

[7] = system: estrogen independent MXT mouse mammary cancers; test: Single treatment of estrogen independent MXT mouse mammary cancers (KS-55); format: in vivo
Description: In order to determine the maximum tolerated doses and compare the effects, MXT (3.2) ovex tumor pieces (1 mm^3) were implanted s.c. in female B6 D2 F1 mice. One day after transplantation the mice were randomly divided into groups of five animals and they were treated with a single injection i.p. The groups and doses are shown in the Table 25-1. […] The compounds were dissolved in 0.1% TFA (pH: 2.0). Tumor volume was measured on days 10, 13, 17, and 20.

[8] = system: CFPAC-1 Human Pancreatic Cancer Cell; test: Growth of CFPAC-1 cells in vitro (crystal violet T/C); format: cell-based
Description: as §1, §2

[9] = system: estrogen independent MXT mouse mammary cancers; test: Treatment of estrogen independent MXT mouse mammary cancers (KS-49); format: in vivo; details: for Average survival: 520 nmol/inj. i.p., 3 weeks, total 1560 nmol (Group 13)
Description: In order to compare the tumor inhibitory activity of cytotoxic doxorubicin derivative, Q6 and its targeted cytotoxic peptide conjugate, Q6^14 gL as well as the well known antineoplastic agent, DOX and to determine the optimal way of administration and the nontoxic doses, LH-RH receptor positive MXT (3.2) ovex tumor pieces (1 mm^3) were implanted s. c. in female B6 D2 F1 mice. One day after transplantation the mice were randomly divided into groups of five animals and the treatment started. The compounds were dissolved in 0.1% trifluoroacetic acid (pH 2) and given intraperitoneally.

[10] = 0 min (during perfusion of 1 nM somatostatin analog), percentage of GH release before analog
[11] = 30 min after infusion of 1 nM somatostatin analog
[12] = 60 min after infusion of 1 nM somatostatin analog
[13] = Table 17-1, 10^-8 M; incubation 70 hr
[14] = Table 17-1, 10^-8 M; incubation 120 hr
[15] = Table 17-1; 3 × 10^-8 M; incubation 70 hr
[16] = Table 17-1; 3 × 10^-8 M; incubation 120 hr
[17] = Table 17-1; 10^-8 M; incubation 70 hr
[18] = Table 17-1; 10^-8 M; incubation 120 hr
[19] = daily dose of 30 nmol (equimolar) i.p. for 12 days
[20] = single i.p. injection 650 nmol/20 g
[21] = single i.p. injection 700 nmol/20 g
[22] = single i.p. injection 750 nmol/20 g

CC(C)[C@@H]1NC(=O)[C@H](CCCCN)NC(=O)[C@@H](Cc2c[nH]c3ccccc23)NC(=O)[C@H](Cc2ccc(O)cc2)NC(=O)[C@@H](NC(=O)[C@H](N)Cc2ccccc2)CSSC[C@@H](C(=O)N[C@H](C(N)=O)[C@@H](C)O)NC1=O [Compound S-121]
T/C Value ([1]; 10^-6 M, incubation 28 h): 76
T/C Value ([1]; 10^-6 M, incubation 76 h): 96
GH release induced by 3 min administration of 1 nM hGH-RH(1-29)NH2 [2, 10]: 0%
GH release induced by 3 min administration of 1 nM hGH-RH(1-29)NH2 [2, 11]: 90%
GH release induced by 3 min administration of 1 nM hGH-RH(1-29)NH2 [2, 12]: 89.7%

COc1cccc2c1C(=O)c1c(O)c3c(c(O)c1C2=O)C[C@@](O)(C(=O)CO)C[C@@H]3O[C@H]1C[C@H](N2CCCC2)[C@H](O)[C@H](C)O1.O=C(O)C(F)(F)F [Compound Q2, 3'-deamino-3'-(pyrrolidine-1"-yl)doxorubicin]
T/C Value [3, 13]: -26
T/C Value [3, 14]: -19
T/C Value [3, 15]: 25
T/C Value [3, 16]: 17
T/C Value [3, 17]: 97
T/C Value [3, 18]: 94
Effect on tumor growth [4, 19]: strong inhibitory effect on tumor growth
Mean survival after transplantation [4, 19]: 17.9 days
Mean tumor volume on day 10 [4, 19]: 153 mm^3
Mean tumor volume on day 14 [4, 19]: 144 mm^3
Mean tumor volume on day 18 [4, 19]: 137 mm^3
Toxicity ([4]; daily dose of 30 nmol i.p. for 12 days): severe toxicity
Effect on tumor growth ([5]; 20 nmol daily dose for 17 days): only a moderate inhibitory effect on tumor growth
Mean survival ([5]; 40 nmol dose): 14.6 days
Toxicity ([5]; 40 nmol dose): toxic

C[C@@H](O)[C@H](NC(=O)[C@@H]1CSSC[C@H](NC(=O)[C@H](N)Cc2c[nH]c3ccccc23)C(=O)N[C@@H](Cc2ccccc2)C(=O)N[C@H](Cc2c[nH]c3ccccc23)C(=O)N[C@@H](CCCCN)C(=O)N[C@@H]([C@@H](C)O)C(=O)N1)C(N)=O [Compound S-98] (H-[dW]CF[dW]KTCT-NH2; disulfide 2-7)
T/C Value ([1]; 10^-6 M, incubation 28 h): 96
T/C Value ([1]; 10^-6 M, incubation 76 h): 98
GH release induced by 3 min administration of 1 nM hGH-RH(1-29)NH2 [2, 10]: 2.9%
GH release induced by 3 min administration of 1 nM hGH-RH(1-29)NH2 [2, 11]: 94.7%
GH release induced by 3 min administration of 1 nM hGH-RH(1-29)NH2 [2, 12]: 117.6%

COc1cccc2c1C(=O)c1c(O)c3c(c(O)c1C2=O)C[C@@](O)(C(=O)CO)C[C@@H]3O[C@H]1C[C@H](N)[C@H](O)[C@H](C)O1 [Doxorubicin, doxorubicin]
T/C Value [3, 13]: 54
T/C Value [3, 14]: 33
T/C Value [3, 15]: 82
T/C Value [3, 16]: 66
T/C Value [3, 17]: 98
T/C Value [3, 18]: 95
T/C Value on MCF-7 Cell Line ([3]; Table 18-1; 3 × 10^-8 M; 70 hr): 82
T/C Value on MCF-7 Cell Line ([3]; Table 18-1; 3 × 10^-8 M; 120 hr): 66
T/C Value on MCF-7 Cell Line ([3]; Table 18-1; 10^-7 M; 70 hr): 54
T/C Value on MCF-7 Cell Line ([3]; Table 18-1; 10^-7 M; 120 hr): 33
T/C Value on MCF-7 Cell Line ([3]; Table 18-1; 10^-8 M; 70 hr): 98
T/C Value on MCF-7 Cell Line ([3]; Table 18-1; 10^-8 M; 120 hr): 95
T/C Value ([1]; 10^-6 M, incubation 28 h): -28
T/C Value ([1]; 10^-6 M, incubation 76 h): -7
T/C Value ([1]; 10^-7 M, incubation 28 h): 64
T/C Value ([1]; 10^-7 M, incubation 76 h): 10
T/C Value ([1]; 10^-8 M, incubation 28 h): 95
T/C Value ([1]; 10^-8 M, incubation 76 h): 71
T/C value on MXT cell line ([6]; 3 × 10^-8 M, 26 hr): 90
T/C value on MXT cell line ([6]; 3 × 10^-8 M, 50 hr): 60
T/C value on MXT cell line ([6]; 10^-7 M, 26 hr): 59
T/C value on MXT cell line ([6]; 10^-7 M, 50 hr): 43
T/C value on MXT cell line ([6]; 10^-8 M, 26 hr): 85
T/C value on MXT cell line ([6]; 10^-8 M, 50 hr): 74
Suppression of tumor growth ([7]; dose of 650 nmol/20 g mouse (as printed in text)): significantly less effective
Toxicity ([7]; single dose of 650 nmol/20 g mouse (as printed in text)): highly toxic
Average survival [7, 20]: 13.6 days
Number of tumorous mice/number of surviving mice Day 10 [7, 20]: 3/3
Number of tumorous mice/number of surviving mice Day 13 [7, 20]: 2/2
Number of tumorous mice/number of surviving mice Day 17 [7, 20]: 1/1
Number of tumorous mice/number of surviving mice Day 20 [7, 20]: 1/1
Average survival [7, 21]: 15.2 days
Number of tumorous mice/number of surviving mice Day 10 [7, 21]: 2/3
Number of tumorous mice/number of surviving mice Day 13 [7, 21]: 2/3
Number of tumorous mice/number of surviving mice Day 17 [7, 21]: 2/2
Average survival [7, 22]: 7.8 days
Number of tumorous mice/number of surviving mice Day 10 [7, 22]: 1/1
T/C Value ([8]; 3 × 10^-7 M, incubation 66 h): 15
T/C Value ([8]; 3 × 10^-7 M, incubation 95 h): 10
T/C Value ([8]; 3 × 10^-7 M, incubation 137 h): 7
T/C Value ([8]; 3 × 10^-8 M, incubation 66 h): 88
T/C Value ([8]; 3 × 10^-8 M, incubation 95 h): 73
T/C Value ([8]; 3 × 10^-8 M, incubation 137 h): 49
T/C Value ([8]; 10^-6 M, incubation 66 h): -7
T/C Value ([8]; 10^-6 M, incubation 95 h): -6
T/C Value ([8]; 10^-6 M, incubation 137 h): -4
T/C Value ([8]; 10^-7 M, incubation 66 h): 52
T/C Value ([8]; 10^-7 M, incubation 95 h): 32
T/C Value ([8]; 10^-7 M, incubation 137 h): 20
Average survival [9]: 20 days
Average survival ([9]; listed as DOX): 20.0 days
Eradication of the tumor ([9]; toxic dose, total amount 1560 nmol): could not eradicate the tumor

Source: patent US6184374A, “Targeted cytotoxic anthracycline analogs” (priority 1998, dated 2001)
